Measurements: article PMC4145624, “Simultaneous purification of nitrile hydratase and amidase of Alcaligenes sp. MTCC 10674” (3 Biotech, 2013)

Legend:
[1] = tested on: T1, Nitrile hydratase (Nhase); assay: acrylamide formation at […] nm; type: biochemical, Alcaligenes sp. MTCC 10674; conditions: sodium phosphate buffer 0.125 M, pH 8.0, 15 °C (standard assay)
T1 construct: gene nthA; native, purified from Alcaligenes sp; MTCC 10674 cells (DEAE-Sepharose); heterodimer of 24 and 21 kDa, 47 kDa by native PAGE

[2] = tested on: T2, Amidase; assay: ammonia release assay; type: biochemical, Alcaligenes sp. MTCC 10674; conditions: sodium phosphate buffer 0.075 M, pH 8.0, 45 °C (standard assay); substrate named, not in the Km sentence
T2 construct: native, purified from Alcaligenes sp; MTCC 10674 cells (DEAE-Sepharose, Sephacryl S-100); dimer of 52 and 49 kDa, 114 kDa by native PAGE

| Compound | Km [1] [mM] | Km [2] [mM] |
| --- | --- | --- |
| C=CC#N [acrylonitrile] | 40 | – |
| CCC(N)=O [propionamide] | – | 45.5 |
